PubChem BioAssay AID248 (DTP/NCI, 2004)
“And” between values parts separate entries of the source, which are not always exact repeats. Equal entries are not always repeated. Inconclusive results and toxic doses are left out. No stated cut-off is given here; in the data, active means T/C of 150% or more; inactive means T/C below 125%.

System: L1210 leukemia ip in BDF1 mice, survival T/C
Assay: NCI In Vivo Anticancer Drug Screen. Data for tumor model L1210 Leukemia (intraperitoneal) in B6D2F1 (BDF1) mice
Settings: endpoint: mean survival time, higher = longer survival
How it was run: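 Each compound was tested against a transplantable tumor grown in mice. The endpoint was survival, with treated animals benchmarked against vehicle controls as a simple ratio.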

[1] = dose: 100.0 mg/kg/injection, schedule: Q01DX009 (ip), vehicle: saline with Tween-80
[2] = dose: 200.0 mg/kg/injection, schedule: Q01DX009 (ip), vehicle: saline with Tween-80
[3] = dose: 12.5 mg/kg/injection, schedule: Q04DX003 (ip), vehicle: saline
[4] = dose: 50.0 mg/kg/injection, schedule: Q04DX003 (ip), vehicle: saline
[5] = dose: 100.0 mg/kg/injection, schedule: Q04DX003 (ip), vehicle: saline with Tween-80
[6] = dose: 50.0 mg/kg/injection, schedule: Q01DX009 (ip), vehicle: saline
[7] = dose: 100.0 mg/kg/injection, schedule: Q01DX009 (ip), vehicle: saline
[8] = dose: 100.0 mg/kg/injection, schedule: Q01DX009 (ip), vehicle: Klucel (hydroxypropylcellulose) (HPC)
[9] = dose: 200.0 mg/kg/injection, schedule: Q01DX009 (ip), vehicle: Klucel (hydroxypropylcellulose) (HPC)
[10] = dose: 400.0 mg/kg/injection, schedule: Q01DX009 (ip), vehicle: Klucel (hydroxypropylcellulose) (HPC)
[11] = dose: 100.0 mg/kg/injection, schedule: Q04DX003 (ip), vehicle: Klucel (hydroxypropylcellulose) (HPC)
[12] = dose: 200.0 mg/kg/injection, schedule: Q04DX003 (ip), vehicle: Klucel (hydroxypropylcellulose) (HPC)
[13] = dose: 400.0 mg/kg/injection, schedule: Q04DX003 (ip), vehicle: Klucel (hydroxypropylcellulose) (HPC)
[14] = dose: 5.0 mg/kg/injection, schedule: Q01DX001 (ip), vehicle: saline
[15] = dose: 10.0 mg/kg/injection, schedule: Q01DX001 (ip), vehicle: saline
[16] = dose: 100.0 mg/kg/injection, schedule: Q01DX001 (ip), vehicle: carboxymethylcellulose (CMC)
[17] = dose: 200.0 mg/kg/injection, schedule: Q01DX001 (ip), vehicle: carboxymethylcellulose (CMC)
[18] = dose: 400.0 mg/kg/injection, schedule: Q01DX001 (ip), vehicle: carboxymethylcellulose (CMC)
[19] = dose: 75.0 mg/kg/injection, schedule: Q01DX001 (ip), vehicle: saline

Measured: T/C

O=C(/C=C\c1ccc(Cl)cc1)c1ccccc1
inactive: [1] 91 % of control | dose: 100.0 mg/kg/injection, schedule: Q04DX002 (ip), vehicle: Klucel (hydroxypropylcellulose) (HPC) 89 % of control | dose: 100.0 mg/kg/injection, schedule: Q04DX002 (ip), vehicle: gum acacia 98 % of control | [2] 91 % of control | dose: 200.0 mg/kg/injection, schedule: Q04DX002 (ip), vehicle: Klucel (hydroxypropylcellulose) (HPC) 96 % of control | dose: 200.0 mg/kg/injection, schedule: Q04DX002 (ip), vehicle: gum acacia 95 % of control | dose: 400.0 mg/kg/injection, schedule: Q01DX009 (ip), vehicle: saline with Tween-80 86 % of control | dose: 400.0 mg/kg/injection, schedule: Q04DX002 (ip), vehicle: Klucel (hydroxypropylcellulose) (HPC) 96 % of control | dose: 400.0 mg/kg/injection, schedule: Q04DX002 (ip), vehicle: gum acacia 91 % of control

COc1cccc(CNc2ccc(C)c(Cl)c2)c1OC
inactive: dose: 100.0 mg/kg/injection, schedule: Q01DX009 (ip), vehicle: gum acacia 99 % of control | dose: 100.0 mg/kg/injection, schedule: Q04DX003 (ip), vehicle: gum acacia 104 % of control | dose: 200.0 mg/kg/injection, schedule: Q01DX009 (ip), vehicle: gum acacia 108 % of control | dose: 200.0 mg/kg/injection, schedule: Q04DX003 (ip), vehicle: gum acacia 97 % of control | dose: 400.0 mg/kg/injection, schedule: Q01DX009 (ip), vehicle: gum acacia 87 % of control | dose: 400.0 mg/kg/injection, schedule: Q04DX003 (ip), vehicle: gum acacia 90 % of control

CC(N)c1ccccc1Cl (stereo not drawn)
inactive: [3] 107 % of control | dose: 25.0 mg/kg/injection, schedule: Q04DX003 (ip), vehicle: saline 96 % of control | [4] 96 % of control

O=C(CC(=O)Nc1ccc([N+](=O)[O-])cc1)Nc1ccc([N+](=O)[O-])cc1
inactive: [5] 87 % of control | dose: 400.0 mg/kg/injection, schedule: Q04DX003 (ip), vehicle: saline with Tween-80 92 % of control

COc1ccccc1/C(C)=N\NC(N)=O
inactive: dose: 100.0 mg/kg/injection, schedule: Q01DX001 (ip), vehicle: saline 97 % of control | dose: 200.0 mg/kg/injection, schedule: Q01DX001 (ip), vehicle: saline 93 % of control | dose: 400.0 mg/kg/injection, schedule: Q01DX001 (ip), vehicle: saline 103 % of control

Fc1c(F)c(F)c(Oc2c(F)c(F)c(F)c(F)c2Oc2c(F)c(F)c(F)c(F)c2F)c(F)c1F
inactive: dose: 10.0 mg/kg/injection, schedule: Q01DX009 (ip), vehicle: Klucel (hydroxypropylcellulose) (HPC) 96 % of control | dose: 25.0 mg/kg/injection, schedule: Q01DX009 (ip), vehicle: Klucel (hydroxypropylcellulose) (HPC) 96 % of control | dose: 37.5 mg/kg/injection, schedule: Q01DX009 (ip), vehicle: Klucel (hydroxypropylcellulose) (HPC) 98 % of control | dose: 150.0 mg/kg/injection, schedule: Q01DX009 (ip), vehicle: Klucel (hydroxypropylcellulose) (HPC) 97 % of control | dose: 300.0 mg/kg/injection, schedule: Q01DX009 (ip), vehicle: Klucel (hydroxypropylcellulose) (HPC) 99 % of control

CC(C)N(CCCO)C(C)C
inactive: [6] 95 % of control | [7] 93 % of control | [5] 95 % of control | dose: 200.0 mg/kg/injection, schedule: Q01DX009 (ip), vehicle: saline 95 % of control | dose: 200.0 mg/kg/injection, schedule: Q04DX003 (ip), vehicle: saline with Tween-80 97 % of control

CNc1ccc(C(=O)NC(CCC(=O)O)C(=O)O)cc1C(F)(F)F (stereo not drawn)
inactive: [8] 98 % of control | [9] 96 % of control | [10] 98 % of control

O=[N+]([O-])c1ccc(N2CCCC2)c([N+](=O)[O-])c1
inactive: [8] 101 % of control | [11] 95 % of control | [9] 93 % of control | [12] 92 % of control | [10] 97 % of control | [13] 99 % of control

CC(=O)Nc1cc([N+](=O)[O-])ccc1O
inactive: [11] 101 % of control | [12] 101 % of control | [13] 101 % of control

c1ccc2c(C3=NCCN3)ccc(C3=NCCN3)c2c1
inactive: dose: 15.0 mg/kg/injection, schedule: Q01DX Z (ip), vehicle: saline 100 % of control | dose: 30.0 mg/kg/injection, schedule: Q01DX Z (ip), vehicle: saline 101 % of control

CC(=O)Nc1ncccc1C
inactive: [14] 94 % of control | [15] 96 % of control | dose: 20.0 mg/kg/injection, schedule: Q01DX001 (ip), vehicle: saline 101 % of control | dose: 40.0 mg/kg/injection, schedule: Q01DX001 (ip), vehicle: saline 100 % of control

O=C1CCC(=O)N1c1ccc(Br)cc1
inactive: dose: 50.0 mg/kg/injection, schedule: Q01DX001 (ip), vehicle: carboxymethylcellulose (CMC) 102 % of control | [16] 102 % of control | [17] 98 % of control | [18] 98 % of control

O=N[O-].O=N[O-].[Co].[NH-]CC[N-]CC[N-]CC[NH-]
inactive: dose: 50.0 mg/kg/injection, schedule: Q01DX001 (ip), vehicle: saline 104 % of control

COC1OC(C)C(O)C(O)[CH]1[Hg][O]C(C)=O (stereo not drawn)
inactive: dose: 3.12 mg/kg/injection, schedule: Q01DX009 (ip), vehicle: saline 113 % of control | [14] 110 % of control | dose: 6.25 mg/kg/injection, schedule: Q01DX009 (ip), vehicle: saline 89 % of control | dose: 6.25 mg/kg/injection, schedule: Q04DX003 (ip), vehicle: saline 102 % of control | [15] 103 % of control | [3] 106 % of control

O=[N+]([O-])c1ccc2c(c1)[As](=O)(O)c1cc([N+](=O)[O-])ccc1-2
inactive: [19] 120 % of control

COc1cc2c(cc1OC)CN1CCc3cc(OC)c(OC)cc3C1C2 (stereo not drawn)
inactive: dose: 50.0 mg/kg/injection, schedule: Q01DX009 (ip), vehicle: saline with Tween-80 93 % of control | [19] 100 % of control | [1] 93 % of control | dose: 150.0 mg/kg/injection, schedule: Q01DX001 (ip), vehicle: saline 100 % of control | [2] 93 % of control | dose: 300.0 mg/kg/injection, schedule: Q01DX001 (ip), vehicle: saline 101 % of control

Nc1nc2ccccc2nc1N
inactive: [6] 96 % of control | [4] 105 % of control | [7] 104 % of control | dose: 100.0 mg/kg/injection, schedule: Q04DX003 (ip), vehicle: saline 101 % of control | dose: 200.0 mg/kg/injection, schedule: Q04DX003 (ip), vehicle: saline 108 % of control

O=C(Nc1ccc(F)cc1)Oc1ccc(OCc2ccccc2)cc1
inactive: [16] 95 % of control | dose: 100.0 mg/kg/injection, schedule: Q01DX009 (ip), vehicle: carboxymethylcellulose (CMC) 99 % of control and 103 % of control | dose: 100.0 mg/kg/injection, schedule: Q04DX002 (ip), vehicle: carboxymethylcellulose (CMC) 93 % of control and 98 % of control | [17] 101 % of control | dose: 200.0 mg/kg/injection, schedule: Q01DX009 (ip), vehicle: carboxymethylcellulose (CMC) 95 % of control and 99 % of control | dose: 200.0 mg/kg/injection, schedule: Q04DX002 (ip), vehicle: carboxymethylcellulose (CMC) 98 % of control and 100 % of control | [18] 101 % of control | dose: 400.0 mg/kg/injection, schedule: Q01DX009 (ip), vehicle: carboxymethylcellulose (CMC) 95 % of control and 91 % of control | dose: 400.0 mg/kg/injection, schedule: Q04DX002 (ip), vehicle: carboxymethylcellulose (CMC) 96 % of control and 100 % of control
